Assays:
[1] = tested on: patients with moderate to severe COPD; experiment: Clinical study in COPD: dyspnea by transition dyspnea index (TDI) in subjects using LABA + ICS; assay type: in vivo, human
Method: A clinical study was conducted to determine the efficacy of ensifentrine in treating COPD compared with placebo. Ensifentrine was administered by nebulizer at a dose of 3 mg twice daily (BID) for 24 weeks. The study was a multicenter, randomized, double-blind, parallel group, placebo-controlled trial with around 800 patients and 5:3 randomization.
The study population included patients aged 40-80 years with moderate to severe COPD (FEV1 30%-70% p.n., FEV1/forced vital capacity (FVC) ratio<0.7, with mMRC≥2). The randomization stratified (a) the use of stable background maintenance LAMA or LABA therapy use (approx. 50% yes or no) and (b) cigarette smoking (current or former). Inhaled corticosteroid (ICS) maintenance therapy was permitted in up to 20% of patients under certain provisions.
Ensifentrine was studied for its ability to treat COPD in subjects using inhalable corticosteroids (ICS) while also using a LABA.

[2] = tested on: patients with moderate to severe COPD; experiment: Clinical study in COPD: moderate/severe COPD exacerbations (rate ratio, time to first exacerbation); assay type: in vivo, human
Text: A COPD exacerbation may be a moderate COPD exacerbation or a severe COPD exacerbation. A moderate exacerbation is defined as worsening symptoms of COPD (as defined hereinabove) requiring a minimum of three days of treatment with oral/systemic corticosteroids and/or antibiotics. A severe exacerbation is defined as worsening symptoms of COPD (as defined hereinabove) requiring in-patient hospitalization. In some embodiments, the pharmaceutical compositions provided herein reduce the severity of COPD exacerbations in a patient, and may be used in preventing severe COPD exacerbations in a subject. In some embodiments, pharmaceutical compositions reduce the severity of COPD exacerbations. In some embodiments, […]
Ensifentrine's ability to reduce the frequency and or severity of COPD exacerbations was studied in 1,549 subjects. Ensifentrine's ability to reduce the frequency and or severity of COPD exacerbations was assessed in various subgroup populations. In one part of the study, subjects were assessed based on whether they were diagnosed with mild or moderate COPD or severe or very severe COPD. […]
These subjects were also assessed for the time to first moderate/severe COPD exacerbation, as measured by a hazard ratio from a Cox model. […]

With `COc1cc2c(cc1OC)-c1c/c(=N\c3c(C)cc(C)cc3C)n(CCNC(N)=O)c(=O)n1CC2` [Ensifentrine, N-(2-{(2E)-9,10-dimethoxy-4-oxo-2-[(2,4,6-trimethylphenyl)imino]-6,7-dihydro-2H-pyrimido[6,1-a]isoquinolin-3(4H)-yl}ethyl)urea] the “Transition Dyspnea Index, LS Mean” value ([1]; COPD medication LABA + ICS) was 1.394 (0.4748), the “Transition Dyspnea Index, Estimate (Ensi-Pla)” value ([1]; COPD medication LABA + ICS, difference ensifentrine minus placebo) was 0.768 and the “Dyspnea compared to placebo” value ([1]; subjects taking LABA and ICS) was “exhibited improvements in dyspnea”. The Reductions in exacerbations ([2]; subjects with baseline blood eosinophil concentrations of greater than 150 cells/μL) was “Reductions in exacerbations were observed” and the Reductions in exacerbations ([2]; subjects with baseline blood eosinophil concentrations of less than or equal to 150 cells/μL) was “Reductions in exacerbations were observed”.
